# Results from paper PMC6390583 (BMC rheumatology, 2018).
# What was measured:
# [1] = test system: IL-6 induced pSTAT3, CD14+ whole blood; assay: IL-6 signaling in human whole blood, CD14+ monocytic population; assay type: cell-based; conditions: JAK 1
# [2] = test system: Erythropoietin-induced STAT5 phosphorylation; assay: Erythropoietin-induced STAT5 phosphorylation in UT-7 cells; assay type: cell-based; conditions: Homo sapiens; UT7 cells, JAK 2; read-out: Human IC50, Epo pSTAT5
# Protocol: (§1) IL-6 and Oncostatin M (OSM) induced STAT3 phosphorylation was assessed in the human erythroleukemia TF-1 cell line. Erythropoietin-induced STAT5 phosphorylation was assessed in the human UT-7 cell line. IL-2 and IL-15 induced STAT5 phosphorylation was assessed in activated human T-cells. Detection of phosphorylated STATs was accomplished with the SureFire pSTAT5 or pSTAT3 Assay kit (Perkin Elmer, Hopkinton, MA) per standard manufacturer’s protocol, with the exception of an overnight incubation following addition of donor beads before detection on the EnVision (Perkin Elmer, Hopkinton, MA). IFNγ induced STAT1 phosphorylation was assessed in the CD14+ monocyte population in human PBMC by flow cytometry. CD14 BV421 was purchased from BD Biosciences (San Jose, CA). STAT1 PE ([…]) was purchased from ThermoFisher Scientific (Waltham, MA). IL-4 and IL-13 induced STAT6 phosphorylation and IL-31 induced STAT3 phosphorylation were assessed in adult human epithelial keratinocytes (HEKa, ThermoFisher Scientific, Waltham, MA) by flow cytometry. STAT6 PE (pY641) and STAT3 PE (Y705) were purchased from BD Biosciences (San Jose, CA).
# [3] = test system: IL-15 induced STAT5 phosphorylation; assay: IL-15 induced STAT5 phosphorylation in activated T-cells; assay type: cell-based; conditions: Homo sapiens, T-cell; T-blasts, JAK 1/3; read-out: Human IC50, IL-15 pSTAT5
# Protocol: as §1
# [4] = test system: IL-31 induced STAT3 phosphorylation; assay: IL-31 induced STAT3 phosphorylation in HEKa; assay type: cell-based; conditions: Homo sapiens, JAK 1/2, read-out: Human IC50, IL-31 pSTAT3
# Protocol: as §1
# [5] = test system: adjuvant induced arthritis; assay: Rat adjuvant-induced arthritis (AIA) model; assay type: in vivo
# [6] = test system: CD3-/CD16+/CD56+ NK cells; assay: Circulating NK cell analysis after 14 days dosing; assay type: in vivo, rat
# Protocol: Blood was collected and stained using BD MultiTest IMK kit (BD Biosciences, San Jose, CA) per manufacturer’s instructions. NK cell numbers were determined by using FlowJo analysis software (FlowJo, LLC, Ashland, OR) and by examining the CD3^−/CD16^+/CD56^+ population. The number of cells/μL was calculated by using the following equation: (# events in cell population/# of events in absolute bead count region) × (# beads per test/test volume), with the value beads per test indicated on the BD Trucount tube label.
# IL-6 induced pSTAT3 = assay: Clinical ex vivo IL-6 stimulation of whole blood, pSTAT3; assay type: in vivo, healthy volunteers
# Protocol: Recombinant human IL-6 (400 ng/ml), or IL-7 (400 ng/ml), (R&D Systems, Minneapolis, MN) was added to blood and incubated for 10 min at 37°C. Surface antibodies were added (CD14-APC, CD3-fluorescein isothiocyanate [FITC]; BD Biosciences, San Jose, CA) and incubated on ice for an additional 20 min. Samples were lysed (Lyse/Fix, BD Biosciences, San Jose, CA) and incubated for 10 min at 37°C. Samples were washed and stored at − 70°C. For intracellular staining, samples were thawed, washed, and resuspended in BD Perm buffer III (BD Biosciences, San Jose, CA) on ice for 30 min. Samples were washed and stained with pSTAT5-PE or pSTAT3-PE (BD Biosciences, San Jose, CA) for 60 min at room temperature and then analyzed immediately on a FACSCalibur. Geometric means were determined using FlowJo analysis software.
# ALK = ALK (Homo sapiens, UniProt Q9UM73); assay: trFRET binding kinome profiling
# Protocol: (§2) JAK activity assays using isolated kinase domains in the presence of 0.1 mM ATP and trFRET kinome profiling were conducted as described previously (17).
# AMPK = assay: trFRET binding kinome profiling
# Protocol: as §2
# BRAF = BRAF (Homo sapiens, UniProt P15056); assay: trFRET binding kinome profiling
# Protocol: as §2
# CAMKK2 = CAMKK2 (Homo sapiens, UniProt Q96RR4); assay: trFRET binding kinome profiling
# CAMKK2, sequence (Q96RR4 whole entry, species assumed): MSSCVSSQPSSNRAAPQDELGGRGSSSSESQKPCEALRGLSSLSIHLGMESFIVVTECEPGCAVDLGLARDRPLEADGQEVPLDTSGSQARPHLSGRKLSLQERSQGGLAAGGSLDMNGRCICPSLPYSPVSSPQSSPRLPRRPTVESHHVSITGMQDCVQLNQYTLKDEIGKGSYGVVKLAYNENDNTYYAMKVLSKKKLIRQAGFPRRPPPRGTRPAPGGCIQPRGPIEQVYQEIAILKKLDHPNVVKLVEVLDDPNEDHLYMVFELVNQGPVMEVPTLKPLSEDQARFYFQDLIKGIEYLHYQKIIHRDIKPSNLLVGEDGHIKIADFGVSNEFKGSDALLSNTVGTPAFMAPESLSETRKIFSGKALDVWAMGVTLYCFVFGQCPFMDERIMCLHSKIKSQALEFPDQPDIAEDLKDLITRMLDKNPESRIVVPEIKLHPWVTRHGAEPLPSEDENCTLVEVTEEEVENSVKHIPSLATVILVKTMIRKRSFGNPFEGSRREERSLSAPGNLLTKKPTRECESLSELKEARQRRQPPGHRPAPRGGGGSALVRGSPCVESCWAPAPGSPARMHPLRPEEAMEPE
# Protocol: as §2
# DYRK1A = DYRK1A (Homo sapiens, UniProt Q13627); assay: trFRET binding kinome profiling
# Protocol: as §2
# FAK = FAK (Homo sapiens, UniProt Q05397); assay: trFRET binding kinome profiling
# Protocol: as §2
# Gsk3a = Gsk3a (Homo sapiens, UniProt P49840); assay: trFRET binding kinome profiling
# Protocol: as §2
# InsR = InsR (Homo sapiens, UniProt P06213); assay: trFRET binding kinome profiling
# Protocol: as §2
# KDR = KDR (Homo sapiens, UniProt P35968); assay: trFRET binding kinome profiling
# Protocol: as §2
# MAP4K4 = MAP4K4 (Homo sapiens, UniProt O95819); assay: trFRET binding kinome profiling
# MAP4K4, sequence (O95819 whole entry, species assumed): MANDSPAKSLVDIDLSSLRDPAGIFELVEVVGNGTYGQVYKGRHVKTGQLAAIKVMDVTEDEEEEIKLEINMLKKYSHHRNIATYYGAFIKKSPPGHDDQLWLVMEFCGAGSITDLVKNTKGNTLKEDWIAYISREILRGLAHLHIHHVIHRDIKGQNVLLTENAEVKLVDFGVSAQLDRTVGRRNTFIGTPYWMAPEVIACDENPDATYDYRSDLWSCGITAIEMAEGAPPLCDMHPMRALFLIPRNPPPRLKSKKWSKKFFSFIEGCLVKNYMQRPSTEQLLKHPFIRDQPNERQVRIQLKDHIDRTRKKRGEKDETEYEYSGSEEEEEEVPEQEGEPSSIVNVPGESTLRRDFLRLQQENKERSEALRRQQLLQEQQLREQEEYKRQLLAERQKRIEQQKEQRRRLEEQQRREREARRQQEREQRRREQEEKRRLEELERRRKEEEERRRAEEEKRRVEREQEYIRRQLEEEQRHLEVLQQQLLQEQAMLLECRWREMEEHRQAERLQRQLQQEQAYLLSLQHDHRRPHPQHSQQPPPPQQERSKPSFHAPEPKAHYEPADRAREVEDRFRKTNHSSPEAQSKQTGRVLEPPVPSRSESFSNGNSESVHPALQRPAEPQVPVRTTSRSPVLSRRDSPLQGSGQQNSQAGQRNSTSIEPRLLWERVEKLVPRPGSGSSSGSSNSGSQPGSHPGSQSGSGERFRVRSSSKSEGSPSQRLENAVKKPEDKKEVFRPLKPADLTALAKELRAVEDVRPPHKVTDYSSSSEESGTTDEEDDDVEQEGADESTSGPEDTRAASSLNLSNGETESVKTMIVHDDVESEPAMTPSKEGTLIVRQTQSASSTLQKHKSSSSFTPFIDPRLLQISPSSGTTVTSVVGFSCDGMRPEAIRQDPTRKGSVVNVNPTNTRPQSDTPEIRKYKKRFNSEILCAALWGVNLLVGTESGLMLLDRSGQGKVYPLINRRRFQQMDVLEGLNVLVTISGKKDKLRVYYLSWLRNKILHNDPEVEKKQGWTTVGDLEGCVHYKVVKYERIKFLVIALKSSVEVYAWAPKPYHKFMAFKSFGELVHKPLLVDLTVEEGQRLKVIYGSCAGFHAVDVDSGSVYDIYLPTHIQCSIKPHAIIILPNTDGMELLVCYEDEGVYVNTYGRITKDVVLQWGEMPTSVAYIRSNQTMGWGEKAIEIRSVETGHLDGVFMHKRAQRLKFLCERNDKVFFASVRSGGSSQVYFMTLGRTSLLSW
# Protocol: as §2
# MEK1 = MEK1 (Homo sapiens, UniProt Q02750); assay: trFRET binding kinome profiling
# MEK1, sequence (Q02750 whole entry, species assumed): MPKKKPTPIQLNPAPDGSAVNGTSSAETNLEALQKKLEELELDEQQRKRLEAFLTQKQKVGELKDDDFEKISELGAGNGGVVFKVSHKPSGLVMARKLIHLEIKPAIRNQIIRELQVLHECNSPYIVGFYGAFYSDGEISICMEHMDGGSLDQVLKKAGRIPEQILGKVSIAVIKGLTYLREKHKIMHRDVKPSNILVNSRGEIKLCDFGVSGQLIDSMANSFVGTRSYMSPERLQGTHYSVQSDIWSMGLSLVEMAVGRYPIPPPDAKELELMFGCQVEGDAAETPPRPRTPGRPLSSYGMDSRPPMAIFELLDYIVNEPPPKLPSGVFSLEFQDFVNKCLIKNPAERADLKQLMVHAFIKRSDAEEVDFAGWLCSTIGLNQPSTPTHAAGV
# Protocol: as §2
# Nek2 = Nek2 (Homo sapiens, UniProt P51955); assay: trFRET binding kinome profiling
# Nek2, sequence (P51955 whole entry, species assumed): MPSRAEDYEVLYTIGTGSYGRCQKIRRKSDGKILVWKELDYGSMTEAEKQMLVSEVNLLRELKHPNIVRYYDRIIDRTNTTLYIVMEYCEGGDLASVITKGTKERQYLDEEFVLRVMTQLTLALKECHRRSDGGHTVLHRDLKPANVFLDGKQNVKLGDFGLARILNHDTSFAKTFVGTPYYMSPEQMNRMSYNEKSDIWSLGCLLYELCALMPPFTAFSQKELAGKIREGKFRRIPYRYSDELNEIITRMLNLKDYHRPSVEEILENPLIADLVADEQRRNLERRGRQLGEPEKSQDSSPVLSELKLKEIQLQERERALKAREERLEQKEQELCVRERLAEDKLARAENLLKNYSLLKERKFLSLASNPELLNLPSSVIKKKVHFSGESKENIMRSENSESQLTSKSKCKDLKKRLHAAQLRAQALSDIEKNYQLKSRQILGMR
# Protocol: as §2
# PAK4KD = target: T1, PAK4KD (Homo sapiens, UniProt O96013); assay: trFRET binding kinome profiling
# T1 construct: PAK4KD
# Protocol: as §2
# PDGFRB = PDGFRB (Homo sapiens, UniProt P09619); assay: trFRET binding kinome profiling
# Protocol: as §2
# Prkcn = Prkcn (Homo sapiens, UniProt O94806); assay: trFRET binding kinome profiling
# Prkcn, sequence (O94806 whole entry, species assumed): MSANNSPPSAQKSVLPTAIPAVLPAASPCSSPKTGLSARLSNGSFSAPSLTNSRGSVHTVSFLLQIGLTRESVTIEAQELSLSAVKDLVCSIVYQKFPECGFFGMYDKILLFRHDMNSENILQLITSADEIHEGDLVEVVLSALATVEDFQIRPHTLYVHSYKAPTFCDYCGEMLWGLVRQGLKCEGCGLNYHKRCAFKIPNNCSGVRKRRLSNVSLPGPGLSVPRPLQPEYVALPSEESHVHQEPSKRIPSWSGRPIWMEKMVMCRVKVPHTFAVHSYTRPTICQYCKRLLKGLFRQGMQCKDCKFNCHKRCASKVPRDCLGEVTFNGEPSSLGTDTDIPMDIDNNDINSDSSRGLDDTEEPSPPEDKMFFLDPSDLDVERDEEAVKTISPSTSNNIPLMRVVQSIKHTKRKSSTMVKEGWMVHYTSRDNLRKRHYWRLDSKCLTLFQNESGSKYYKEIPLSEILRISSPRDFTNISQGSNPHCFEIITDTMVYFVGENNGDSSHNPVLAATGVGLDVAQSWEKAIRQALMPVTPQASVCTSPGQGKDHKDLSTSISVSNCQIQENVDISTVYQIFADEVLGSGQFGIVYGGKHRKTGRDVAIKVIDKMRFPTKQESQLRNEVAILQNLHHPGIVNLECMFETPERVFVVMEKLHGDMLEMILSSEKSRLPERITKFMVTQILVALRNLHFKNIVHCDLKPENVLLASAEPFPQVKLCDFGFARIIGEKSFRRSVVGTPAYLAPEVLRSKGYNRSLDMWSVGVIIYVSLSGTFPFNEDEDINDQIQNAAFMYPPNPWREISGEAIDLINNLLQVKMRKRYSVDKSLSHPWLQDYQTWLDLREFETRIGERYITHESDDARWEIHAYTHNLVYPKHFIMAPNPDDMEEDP
# Protocol: as §2
# RET = RET (Homo sapiens, UniProt P07949); assay: trFRET binding kinome profiling
# Protocol: as §2
# Syk = Syk (Homo sapiens, UniProt P43405); assay: trFRET binding kinome profiling
# Protocol: as §2
# TTK = TTK (Homo sapiens, UniProt P33981); assay: trFRET binding kinome profiling
# Protocol: as §2
# TrkA = TrkA (Homo sapiens, UniProt P04629); assay: trFRET binding kinome profiling
# Protocol: as §2
# cMET = cMET (Homo sapiens, UniProt P08581); assay: trFRET binding kinome profiling
# cMET, sequence (P08581 25-1390): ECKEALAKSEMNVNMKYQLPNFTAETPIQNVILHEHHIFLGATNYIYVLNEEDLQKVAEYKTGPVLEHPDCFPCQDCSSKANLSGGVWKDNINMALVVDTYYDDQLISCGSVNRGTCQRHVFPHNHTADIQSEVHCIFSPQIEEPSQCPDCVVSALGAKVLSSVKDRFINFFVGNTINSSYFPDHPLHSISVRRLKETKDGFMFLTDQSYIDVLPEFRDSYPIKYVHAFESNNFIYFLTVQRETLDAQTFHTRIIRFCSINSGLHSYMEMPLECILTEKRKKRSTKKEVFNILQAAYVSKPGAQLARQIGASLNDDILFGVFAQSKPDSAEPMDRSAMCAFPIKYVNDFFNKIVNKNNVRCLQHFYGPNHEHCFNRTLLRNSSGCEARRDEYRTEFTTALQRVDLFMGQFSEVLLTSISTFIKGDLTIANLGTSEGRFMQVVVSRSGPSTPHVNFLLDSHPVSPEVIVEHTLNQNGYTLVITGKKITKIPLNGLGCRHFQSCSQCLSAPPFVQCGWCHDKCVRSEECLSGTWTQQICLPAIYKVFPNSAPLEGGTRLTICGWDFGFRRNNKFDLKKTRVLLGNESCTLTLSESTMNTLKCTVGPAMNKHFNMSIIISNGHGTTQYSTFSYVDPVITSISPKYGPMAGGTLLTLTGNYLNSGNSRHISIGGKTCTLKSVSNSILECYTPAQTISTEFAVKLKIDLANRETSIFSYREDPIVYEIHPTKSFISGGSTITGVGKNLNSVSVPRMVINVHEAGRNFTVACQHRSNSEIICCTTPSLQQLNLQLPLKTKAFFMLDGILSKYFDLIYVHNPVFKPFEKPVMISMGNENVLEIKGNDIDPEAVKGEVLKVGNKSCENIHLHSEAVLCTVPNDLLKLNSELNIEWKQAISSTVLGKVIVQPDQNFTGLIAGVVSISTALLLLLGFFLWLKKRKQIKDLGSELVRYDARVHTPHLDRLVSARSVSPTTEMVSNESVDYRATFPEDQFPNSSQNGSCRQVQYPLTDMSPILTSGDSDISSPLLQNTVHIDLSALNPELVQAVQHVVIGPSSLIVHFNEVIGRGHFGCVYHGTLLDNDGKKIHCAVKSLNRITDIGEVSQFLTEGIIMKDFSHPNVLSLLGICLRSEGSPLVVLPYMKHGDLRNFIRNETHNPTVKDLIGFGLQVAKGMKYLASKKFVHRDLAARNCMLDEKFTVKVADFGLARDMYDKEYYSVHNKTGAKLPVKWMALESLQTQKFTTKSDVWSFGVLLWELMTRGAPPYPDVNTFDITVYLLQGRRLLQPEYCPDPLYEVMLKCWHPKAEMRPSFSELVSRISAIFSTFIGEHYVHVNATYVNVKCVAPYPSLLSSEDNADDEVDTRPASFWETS
# Protocol: as §2
structure (smiles),measurement,setting,value
"CC[C@@H]1CN(C(=O)NCC(F)(F)F)C[C@@H]1c1cnc2cnc3[nH]ccc3n12 [upadacitinib, (3S,4R)-3-ethyl-4-(3H-imidazo [1,2-a]pyrrolo [2,3-e]pyrazin-8-yl)-N-(2,2,2-trifluoroethyl) pyrrolidine-1-carboxamide]",IC50,[1],0.078 µM
same,IC50,[2],0.649 µM
same,IC50,[3],0.022 µM
same,IC50,[4],0.003 µM
same,Histological endpoints,"[5]; 3 and 10 mg/kg dose groups, data not shown","improved synovial hypertrophy, inflammation, cartilage damage and bone erosion"
same,Reduction in paw swelling at clinical AUC exposures,[5]; exposures for 6 mg BID and 12 mg BID clinical doses of upadacitinib,> 90%
same,"AUC60, AUC0-12 drug concentration necessary to achieve 60% inhibition of paw swelling",[5]; oral BID,83 ng·h/mL
same,Effect on paw swelling,"[5]; oral, dosed from day 7",dose and exposure dependent reductions in paw swelling
same,AUC60 for decrease of circulating NK cell numbers,[6]; naive rats dosed orally for 14 days,480 ng·h/mL
same,Decrease in circulating NK cells at AUC60,"[6]; rat, at AUC60 of paw swelling",25%
same,inhibition at 3 mg,"IL-6 induced pSTAT3; Homo sapiens, 1 h",~50%
same,Dose reaching maximal pSTAT3 inhibition,"IL-6 induced pSTAT3; healthy volunteers, IL-6 stimulation, 1 h post dose",36 mg
same,IC50,ALK,> 5.5 µM
same,IC50,AMPK,> 4.5 µM
same,IC50,BRAF,> 10 µM
same,IC50,CAMKK2,> 10 µM
same,IC50,DYRK1A,> 10 µM
same,IC50,FAK,> 10 µM
same,IC50,Gsk3a,> 10 µM
same,IC50,InsR,> 10 µM
same,IC50,KDR,> 1.5 µM
same,IC50,MAP4K4,> 10 µM
same,IC50,MEK1,> 10 µM
same,IC50,Nek2,> 10 µM
same,IC50,PAK4KD,> 10 µM
same,IC50,PDGFRB,> 10 µM
same,IC50,Prkcn,> 10 µM
same,IC50,RET,2.4 µM
same,IC50,Syk,> 10 µM
same,IC50,TTK,> 10 µM
same,IC50,TrkA,> 10 µM
same,IC50,cMET,> 10 µM
